In article PMC5146859, “Phase 1/2 study of pacritinib, a next generation JAK2/FLT3 inhibitor, in myelofibrosis or other myeloid malignancies” (Journal of Hematology & Oncology, 2016):
Read-outs that look alike come from different tables or passages of the source.

Test: Phase 1 pharmacokinetics (liquid chromatography/tandem mass spectrometry)
Type: in vivo, human
Parameters: C24h, Mean / C24h, Median: unit not given here
Conditions: for AUC(0-t) / Cmax / Tmax: human, in vivo
Protocol: In phase 1, full PK sampling was performed on days 1 and 15 of cycle 1 and day 1 of cycle 2. Trough PK samples were drawn prior to dosing on days 8 and 22 of cycle 1 and at 24, 48, and 72 h after dosing on day 25 of cycle 1. A sample was collected before dosing on day 1 of cycles 4, 7, and 10. Pacritinib concentrations were determined using a validated liquid chromatography/tandem mass spectrometry method. An analysis of clinical exposures from the HCl and citrate salts of pacritinib was performed comparing Day 1 PK data from 12 patients who received the HCl salt formulation in the 200 mg cohorts of this study and two other pacritinib studies [NCT00741871 and NCT00745550]) with six patients in the 200 mg cohort of this study who received the citrate salt formulation.

[1] = phase 1, Day 1, 200 mg (HCl and citrate salt cohorts pooled)
[2] = phase 1, Day 15, 200 mg (HCl and citrate salt cohorts pooled)

C1=C/COCc2cc(ccc2OCCN2CCCC2)Nc2nccc(n2)-c2cccc(c2)COC/1 [pacritinib, 11-(2-pyrrolidin-1-yl-ethoxy)-14,19-dioxa-5,7,26-triaza-tetracyclo[19.3.1.1(2,6). 1(8,12)]heptacosa-1(25),2(26),3,5,8,10,12(27),16,21,23-decaene]
Mean PK profiles, citrate vs HCl salts (200 mg, day 1, 6 patients citrate vs 12 patients HCl): similar
AUC(0-t) (oral, 100 mg, phase 1, Day 1, 100 mg, read-out: AUC0-24h, Mean): 65.9 µg·h/mL
AUC(0-t) (oral, 100 mg, phase 1, Day 1, 100 mg, read-out: AUC0-24h, Median): 56 µg·h/mL
Cmax (oral, 100 mg, phase 1, Day 1, 100 mg, read-out: Cmax, Mean): 3700 ng/mL
Cmax (oral, 100 mg, phase 1, Day 1, 100 mg, read-out: Cmax, Median): 2910 ng/mL
Tmax (oral, 100 mg, phase 1, Day 1, 100 mg, read-out: Tmax, Median): 5 h
AUC(0-t) (oral, 100 mg, phase 1, Day 15, 100 mg, read-out: AUC0-24h, Mean): 120 µg·h/mL
AUC(0-t) (oral, 100 mg, phase 1, Day 15, 100 mg, read-out: AUC0-24h, Median): 121 µg·h/mL
Cmax (oral, 100 mg, phase 1, Day 15, 100 mg, read-out: Cmax, Mean): 6360 ng/mL
Cmax (oral, 100 mg, phase 1, Day 15, 100 mg, read-out: Cmax, Median): 6180 ng/mL
Tmax (oral, 100 mg, phase 1, Day 15, 100 mg, read-out: Tmax, Median): 3 h
AUC(0-t) (oral, 150 mg, phase 1, Day 1, 150 mg, read-out: AUC0-24h, Mean): 64.7 µg·h/mL
AUC(0-t) (oral, 150 mg, phase 1, Day 1, 150 mg, read-out: AUC0-24h, Median): 69.2 µg·h/mL
Cmax (oral, 150 mg, phase 1, Day 1, 150 mg, read-out: Cmax, Mean): 3720 ng/mL
Cmax (oral, 150 mg, phase 1, Day 1, 150 mg, read-out: Cmax, Median): 3790 ng/mL
AUC(0-t) (oral, 150 mg, phase 1, Day 15, 150 mg, read-out: AUC0-24h, Mean): 140 µg·h/mL
AUC(0-t) (oral, 150 mg, phase 1, Day 15, 150 mg, read-out: AUC0-24h, Median): 114 µg·h/mL
Cmax (oral, 150 mg, phase 1, Day 15, 150 mg, read-out: Cmax, Mean): 6700 ng/mL
Cmax (oral, 150 mg, phase 1, Day 15, 150 mg, read-out: Cmax, Median): 5410 ng/mL
Tmax (oral, 150 mg, phase 1, Day 15, 150 mg, read-out: Tmax, Median): 2.5 h
AUC(0-t) (oral, 300 mg, phase 1, Day 1, 300 mg, read-out: AUC0-24h, Mean): 87.1 µg·h/mL
AUC(0-t) (oral, 300 mg, phase 1, Day 1, 300 mg, read-out: AUC0-24h, Median): 98.2 µg·h/mL
Cmax (oral, 300 mg, phase 1, Day 1, 300 mg, read-out: Cmax, Mean): 5240 ng/mL
Cmax (oral, 300 mg, phase 1, Day 1, 300 mg, read-out: Cmax, Median): 5830 ng/mL
AUC(0-t) (oral, 300 mg, phase 1, Day 15, 300 mg, read-out: AUC0-24h, Mean): 133 µg·h/mL
AUC(0-t) (oral, 300 mg, phase 1, Day 15, 300 mg, read-out: AUC0-24h, Median): 134 µg·h/mL
Cmax (oral, 300 mg, phase 1, Day 15, 300 mg, read-out: Cmax, Mean): 6410 ng/mL
Cmax (oral, 300 mg, phase 1, Day 15, 300 mg, read-out: Cmax, Median): 6860 ng/mL
AUC(0-t) (oral, 400 mg, phase 1, Day 1, 400 mg, read-out: AUC0-24h, Mean): 127 µg·h/mL
AUC(0-t) (oral, 400 mg, phase 1, Day 1, 400 mg, read-out: AUC0-24h, Median): 118 µg·h/mL
Cmax (oral, 400 mg, phase 1, Day 1, 400 mg, read-out: Cmax, Mean): 6280 ng/mL
Cmax (oral, 400 mg, phase 1, Day 1, 400 mg, read-out: Cmax, Median): 5640 ng/mL
Tmax (oral, 400 mg, phase 1, Day 1, 400 mg, read-out: Tmax, Median): 8 h
AUC(0-t) (oral, 400 mg, phase 1, Day 15, 400 mg, read-out: AUC0-24h, Mean): 203 µg·h/mL
AUC(0-t) (oral, 400 mg, phase 1, Day 15, 400 mg, read-out: AUC0-24h, Median): 240 µg·h/mL
Cmax (oral, 400 mg, phase 1, Day 15, 400 mg, read-out: Cmax, Mean): 9770 ng/mL
Cmax (oral, 400 mg, phase 1, Day 15, 400 mg, read-out: Cmax, Median): 11700 ng/mL
AUC(0-t) (oral, 500 mg, phase 1, Day 1, 500 mg, read-out: AUC0-24h, Mean): 141 µg·h/mL
AUC(0-t) (oral, 500 mg, phase 1, Day 1, 500 mg, read-out: AUC0-24h, Median): 118 µg·h/mL
Cmax (oral, 500 mg, phase 1, Day 1, 500 mg, read-out: Cmax, Mean): 7050 ng/mL
Cmax (oral, 500 mg, phase 1, Day 1, 500 mg, read-out: Cmax, Median): 6310 ng/mL
AUC(0-t) (oral, 500 mg, phase 1, Day 15, 500 mg, read-out: AUC0-24h, Mean): 178 µg·h/mL
AUC(0-t) (oral, 500 mg, phase 1, Day 15, 500 mg, read-out: AUC0-24h, Median): 161 µg·h/mL
Cmax (oral, 500 mg, phase 1, Day 15, 500 mg, read-out: Cmax, Mean): 8730 ng/mL
Cmax (oral, 500 mg, phase 1, Day 15, 500 mg, read-out: Cmax, Median): 7990 ng/mL
AUC(0-t) (oral, 600 mg, phase 1, Day 1, 600 mg, read-out: AUC0-24h, Mean): 136 µg·h/mL
AUC(0-t) (oral, 600 mg, phase 1, Day 1, 600 mg, read-out: AUC0-24h, Median): 129 µg·h/mL
Cmax (oral, 600 mg, phase 1, Day 1, 600 mg, read-out: Cmax, Mean): 8330 ng/mL
Cmax (oral, 600 mg, phase 1, Day 1, 600 mg, read-out: Cmax, Median): 7880 ng/mL
Tmax (oral, 600 mg, phase 1, Day 1, 600 mg, read-out: Tmax, Median): 4.5 h
AUC(0-t) (oral, 600 mg, phase 1, Day 15, 600 mg, read-out: AUC0-24h, Mean): 161 µg·h/mL
AUC(0-t) (oral, 600 mg, phase 1, Day 15, 600 mg, read-out: AUC0-24h, Median): 161 µg·h/mL
Cmax (oral, 600 mg, phase 1, Day 15, 600 mg, read-out: Cmax, Mean): 9220 ng/mL
Cmax (oral, 600 mg, phase 1, Day 15, 600 mg, read-out: Cmax, Median): 8560 ng/mL
Tmax (oral, phase 1, day 1, 100-600 mg, read-out: Median time to maximum concentration (Tmax), range over dose cohorts): 4 to 8 h
Tmax (oral, phase 1, day 15, 100-600 mg, read-out: Median time to maximum concentration (Tmax), range over dose cohorts): 2.5 to 5 h
AUC(0-t) (po, 200 mg, phase 1, Day 1, 200 mg (HCl and citrate salt cohorts pooled), read-out: AUC0-24h, Mean): 93.3 µg·h/mL
AUC(0-t) (po, 200 mg, phase 1, Day 1, 200 mg (HCl and citrate salt cohorts pooled), read-out: AUC0-24h, Median): 87.3 µg·h/mL
Cmax (po, 200 mg, phase 1, Day 1, 200 mg (HCl and citrate salt cohorts pooled), read-out: Cmax, Mean): 5000 ng/mL
Cmax (po, 200 mg, phase 1, Day 1, 200 mg (HCl and citrate salt cohorts pooled), read-out: Cmax, Median): 4570 ng/mL
Tmax (po, 200 mg, phase 1, Day 1, 200 mg (HCl and citrate salt cohorts pooled), read-out: Tmax, Median): 5 h
AUC(0-t) (po, 200 mg, phase 1, Day 15, 200 mg (HCl and citrate salt cohorts pooled), read-out: AUC0-24h, Mean): 125 µg·h/mL
AUC(0-t) (po, 200 mg, phase 1, Day 15, 200 mg (HCl and citrate salt cohorts pooled), read-out: AUC0-24h, Median): 130 µg·h/mL
Cmax (po, 200 mg, phase 1, Day 15, 200 mg (HCl and citrate salt cohorts pooled), read-out: Cmax, Mean): 6700 ng/mL
Cmax (po, 200 mg, phase 1, Day 15, 200 mg (HCl and citrate salt cohorts pooled), read-out: Cmax, Median): 6450 ng/mL
Tmax (po, 200 mg, phase 1, Day 15, 200 mg (HCl and citrate salt cohorts pooled), read-out: Tmax, Median): 5 h
C24h, Mean (phase 1, Day 1, 100 mg): 2440
C24h, Median (phase 1, Day 1, 100 mg): 2318
C24h, Mean (phase 1, Day 1, 150 mg): 3113
C24h, Median (phase 1, Day 1, 150 mg): 2316
C24h, Mean [1]: 3921
C24h, Median [1]: 3026
C24h, Mean (phase 1, Day 1, 300 mg): 4213
C24h, Median (phase 1, Day 1, 300 mg): 3528
C24h, Mean (phase 1, Day 1, 400 mg): 5644
C24h, Median (phase 1, Day 1, 400 mg): 4725
C24h, Mean (phase 1, Day 1, 500 mg): 5899
C24h, Median (phase 1, Day 1, 500 mg): 4417
C24h, Mean (phase 1, Day 1, 600 mg): 5093
C24h, Median (phase 1, Day 1, 600 mg): 4136
C24h, Mean (phase 1, Day 15, 100 mg): 3945
C24h, Median (phase 1, Day 15, 100 mg): 4322
C24h, Mean (phase 1, Day 15, 150 mg): 5428
C24h, Median (phase 1, Day 15, 150 mg): 5026
C24h, Mean [2]: 4852
C24h, Median [2]: 4993
C24h, Mean (phase 1, Day 15, 300 mg): 4965
C24h, Median (phase 1, Day 15, 300 mg): 4850
C24h, Mean (phase 1, Day 15, 400 mg): 8429
C24h, Median (phase 1, Day 15, 400 mg): 10168
C24h, Mean (phase 1, Day 15, 500 mg): 6550
C24h, Median (phase 1, Day 15, 500 mg): 5685
C24h, Mean (phase 1, Day 15, 600 mg): 6439
C24h, Median (phase 1, Day 15, 600 mg): 5417
Between-patient coefficient of variation for Cmax and AUC0–24 (phase 1, day 1): 25 to 63%
Dose proportionality of exposure (Cmax, C24, AUC0–24) (phase 1, day 1): less than dose-proportional
Between-patient coefficient of variation for Cmax and AUC0–24 (phase 1, day 15): 20–54%
Dose dependence of exposure (Cmax, C24, AUC0–24) (phase 1, day 15): plateau above the 400 mg dose level
